# Measurements reported in the supplement of paper PMC10307832.
# Compound: CC1=C(C=CC(=C1)[N+](=O)[O-])NS(=O)(=O)C2=C(C=CC(=C2)Cl)Cl [FH535] + CCNC(=O)c1noc(-c2cc(C(C)C)c(O)cc2O)c1-c1ccc(CN2CCOCC2)cc1 [Luminespib] (partner 0.01 µM)
# Assay: relative viability (nuclei count vs DMSO), 5 days (fraction); higher = more cells survive
# How it was run: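 Five library-drug doses in √10 steps were combined with a fixed anchor-drug dose, or a single drug was given alone, by pin tool to lung cancer cell lines in 1536-well plates the day after seeding. Nuclei were stained and counted after 5 days. Relative viability is the nuclei count in treated wells over that in vehicle wells, taken as the median of duplicate plates.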
Cell Line,relative viability (first compound 0.04 µM),relative viability (first compound 0.1265 µM),relative viability (first compound 0.4 µM),relative viability (first compound 1.265 µM)
NCI-H650,0.639,0.732,0.796,0.619
NCI-H2009,0.996,1.02,0.938,0.686
EPLC-272H,0.277,0.357,0.505,0.197
NCI-H596,1.07,1.11,0.85,0.992
NCI-H3122,0.0802,0.122,0.0923,0.0705
NCI-H2085,0.333,0.481,0.41,0.268
NCI-H441,0.319,0.291,0.356,0.352
NCI-H2170,0.726,0.606,0.661,0.426
LC-2-ad,0.967,1.16,1.03,0.755
SK-MES-1,0.814,0.907,0.797,0.56
NCI-H358,0.325,0.368,0.293,0.308
A-427,0.778,1.19,0.885,0.703
NCI-H1666,0.988,0.933,0.966,0.983
LOU-NH91,0.333,0.326,0.369,0.288
ABC-1,0.543,0.861,0.627,0.337
NCI-H1651,1.01,0.701,0.748,0.591
201T,1.04,1.03,1.03,0.735
NCI-H322M,0.816,0.904,0.866,0.805
NCI-H838,0.278,0.419,0.261,0.247
NCI-H460,0.0362,0.0377,0.0408,0.0254
HOP-62,0.695,0.98,0.831,0.707
SK-LU-1,0.181,0.21,0.198,0.214
HCC-44,1.09,1.16,1.02,0.575

Cell Line,relative viability (first compound 0.04 µM),relative viability (first compound 0.1265 µM),relative viability (first compound 0.4 µM),relative viability (first compound 1.265 µM)
LCLC-103H,0.936,1.02,0.862,0.616
NCI-H1915,0.81,0.797,0.775,0.644
ChaGo-K-1,0.653,0.665,0.55,0.576
PC-3 [JPC-3],0.794,0.76,0.546,0.399
SW 1573,0.237,0.346,0.193,0.638
NCI-H1437,1.1,1,0.858,0.449
NCI-H1734,,0.207,0.215,0.176
LK-2,0.201,0.165,0.168,0.173
HCC-15,0.287,0.302,0.255,0.302
NCI-H661,0.893,0.928,0.841,0.56
NCI-H2405,0.76,0.752,0.602,0.605
LXF-289,0.635,0.837,0.611,0.61
BEN,0.211,0.466,0.285,0.119
NCI-H2023,0.838,0.704,0.681,0.64
NCI-H727,0.323,0.5,0.327,0.297
NCI-H1355,0.667,0.761,0.72,0.463
NCI-H1793,0.168,0.229,0.19,0.143
COR-L 105,0.499,0.952,0.738,0.671
NCI-H2228,0.127,0.152,0.156,0.0969
PC-14,0.126,0.168,0.152,0.117
EMC-BAC-2,1.21,1.23,1.12,1.04
LU99A,0.225,0.272,0.209,0.236
RERF-LC-KJ,1.27,1.14,1.13,0.728

Cell Line,relative viability (first compound 0.04 µM),relative viability (first compound 0.1265 µM),relative viability (first compound 0.4 µM),relative viability (first compound 1.265 µM)
NCI-H647,0.156,0.167,0.125,0.23
LCLC-97TM1,0.736,0.763,0.742,0.436
NCI-H1993,0.87,0.736,0.55,0.449
HARA,0.52,0.869,0.726,0.446
NCI-H520,0.159,0.212,0.257,0.24
NCI-H1650,0.175,0.218,0.201,0.189
EKVX,0.876,0.935,0.859,0.764
NCI-H1755,0.394,0.445,0.38,0.418
NCI-H1395,0.738,0.576,0.784,0.581
NCI-H1792,0.441,0.433,0.436,0.263
NCI-H2087,0.178,0.141,0.147,0.191
H3255,0.849,0.892,0.911,0.44
NCI-H1944,0.672,0.82,0.727,0.669
NCI-H2347,0.617,0.333,0.39,0.752
HCC-827,0.676,0.794,0.682,0.336
NCI-H23,,0.207,0.199,0.225
NCI-H1975,0.178,0.22,0.164,0.167
NCI-H1563,0.491,0.556,0.615,0.52
COR-L23,0.73,0.612,0.5,0.435
CAL-12T,0.331,0.496,0.727,0.536
UMC-11,1.12,1.03,1.02,0.763
NCI-H2126,0.841,0.919,0.868,0.514
